≈ marks a conversion by molar mass, not a printed value. Where two headings read alike, the source gives them in different places.
Legend:
[1] = molecular target: T1, glucocerebrosidase (Gcase) (Homo sapiens, UniProt P04062); assay: Glucocerebrosidase (Gcase) activation assay, 4-methylumbelliferyl-beta-D-glucopyranoside substrate, with saposin C; assay type: biochemical
T1 sequence (P04062 40-536): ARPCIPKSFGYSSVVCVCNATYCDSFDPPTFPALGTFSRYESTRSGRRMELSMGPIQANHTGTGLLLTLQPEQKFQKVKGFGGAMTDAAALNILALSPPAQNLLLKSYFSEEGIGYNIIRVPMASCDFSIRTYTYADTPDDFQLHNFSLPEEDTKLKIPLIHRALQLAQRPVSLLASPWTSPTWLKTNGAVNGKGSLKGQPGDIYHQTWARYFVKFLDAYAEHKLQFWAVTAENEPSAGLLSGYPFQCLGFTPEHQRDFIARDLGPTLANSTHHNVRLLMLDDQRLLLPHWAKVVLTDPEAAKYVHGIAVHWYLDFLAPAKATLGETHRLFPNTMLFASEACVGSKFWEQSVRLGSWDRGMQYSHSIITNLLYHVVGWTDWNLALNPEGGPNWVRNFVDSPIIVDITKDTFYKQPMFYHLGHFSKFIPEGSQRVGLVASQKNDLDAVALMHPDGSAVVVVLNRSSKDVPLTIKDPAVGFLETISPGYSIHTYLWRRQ
Procedure, shortened: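 Compounds tested at 1.0 and 0.1 μM, then in 8-point 3-fold curves, were pre-incubated 30 min at room temperature with 10 nM GCase plus 100 nM saposin C in PS/triton micelles, pH 4.7. Reaction with substrate (2 mM in micelles before mixing) ran 15 min; stopped at pH 12.5, read at ex 365/em 440 nm.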

[2] = Compound solubility in water; assay type: physicochemical
[3] = 0.1 μM test compound, read-out: Percent Gcase Activation 0.1 μM Test Compound
[4] = 1 μM test compound, read-out: Percent Gcase Activation 1 μM Test Compound
[5] = test compound at 0.1 μM, read-out: Percent Gcase Activation, 0.1 μM Test Compound
[6] = test compound at 1.0 μM, read-out: Percent Gcase Activation, 1 μM Test Compound

Row | activation at 0.1 µM [1, 3] [%] | activation at 1 µM [1, 4] [%] | solubility [2] [µg/mL] | activation at 0.1 µM [1, 5] [%] | activation at 1 µM [1, 6] [%] | solubility ([2]; in water) [µg/mL] | Structure (SMILES)
1 | > 20 | > 60 | 2.1 (≈ 6.03 µM) |  |  |  | C#CC(C)(C)NC(=O)c1ncn2c(C)cc(-c3cccc(OC)c3)nc12 [III-157]
2 | 10 to 20 | > 60 | 10.1 (≈ 29.2 µM) |  |  |  | Cc1cc(-c2cccc(C#N)c2)nc2c(C(=O)N[C@@H](C)C3CC3)ncn12 [III-150]
3 | > 20 | > 60 | 1.1 (≈ 2.78 µM) |  |  |  | CCOc1cc(C)n2cnc(C(=O)NC(c3ccc(F)cc3)C(F)(F)F)c2n1 (stereo not drawn) [III-21]
4 | 10 to 20 | > 60 | 4 (≈ 11.7 µM) |  |  |  | Cc1cc(-c2ccns2)nc2c(C(=O)NC(C)(C)C3CC3)ncn12 [III-60]
5 |  |  |  | < 10 | 30 to 60 | 13.5 (≈ 31.4 µM) | COc1c(C#N)cccc1-c1cc(C)n2cnc(C(=O)NC(C3CC3)C(F)(F)F)c2n1 (stereo not drawn) [IV-67]
6 | < 10 | < 30 | 22.8 (≈ 67.2 µM) |  |  |  | Cc1cc(-c2cn(C)nn2)nc2c(C(=O)NC(C)(C)C3CC3)ncn12 [III-82]
7 | 10 to 20 | > 60 | 9.6 (≈ 25.4 µM) |  |  |  | Cc1cc(N2CCCC(F)(F)C2)nc2c(C(=O)NC(C)(C)C3CC3)ncn12 [III-92]
8 | < 10 | 30 to 60 | 27.7 (≈ 78.2 µM) |  |  |  | Cc1cc(Oc2ccccc2F)nc2c(C(=O)N[C@@H](C)C3CC3)ncn12 [III-120]
9 |  |  |  | < 10 | 30 to 60 | 4.2 (≈ 11.3 µM) | Cc1cc(-n2ccc(Cl)n2)nc2c(C(=O)NC(C)C(F)(F)F)ncn12 (stereo not drawn) [IV-74]
10 | < 10 | 30 to 60 | 17.3 (≈ 49.2 µM) |  |  |  | COc1cncc(-c2cc(C)n3cnc(C(=O)N[C@@H](C)C4CC4)c3n2)c1 [III-97]
11 |  |  |  | > 20 | > 60 | 5.9 (≈ 14.6 µM) | Cc1cc(-c2cc(C#N)cs2)nc2c(C(=O)NC(C3CC3)C(F)(F)F)ncn12 (stereo not drawn) [IV-85]
12 | 10 to 20 | > 60 | 12 (≈ 27.8 µM) |  |  |  | CCc1cc(N2CCCC(F)(F)C2)nc2c(C(=O)NC(C3CC3)C(F)(F)F)ncn12 (stereo not drawn) [III-137]
13 | 10 to 20 | > 60 | 32.6 (≈ 109 µM) |  |  |  | Cc1cc(C)n2cnc(C(=O)NC(CC(C)C)C3CC3)c2n1 (stereo not drawn) [III-11]
14 | < 10 | < 30 | 6.4 (≈ 19 µM) |  |  |  | Cc1cc(-c2ncccn2)nc2c(C(=O)NC(C)(C)C3CC3)ncn12 [III-95]
15 |  |  |  | > 20 | > 60 | 0.7 (≈ 1.78 µM) | Cc1cc(-c2cccc(F)c2)nc2c(C(=O)N[C@H](C3CC3)C(F)(F)F)ncn12 [IV-19]
16 | 10 to 20 | > 60 | 0.2 (≈ 0.487 µM) |  |  |  | COc1cc(-c2cc(C)n3cnc(C(=O)NC(C4CC4)C4CC4)c3n2)ccc1Cl [III-175]
17 | > 20 | > 60 | 1.7 (≈ 4.31 µM) |  |  |  | COc1cc(F)cc(-c2cc(C)n3cnc(C(=O)NC(C4CC4)C4CC4)c3n2)c1 [III-173]

— US9920061B2, “Imidazo[1,5-A]pyrimidinyl carboxamide compounds and their use in the treatment of medical disorders” (Lysosomal Therapeutics Inc., priority 2016, dated 2018)
